From US6900200B2, “Tricyclic hydroxy carboxamides and derivatives thereof tocolytic oxytocin receptor antagonists” (Wyeth, priority 2001, dated 2005)
pIC50: −log10 of the molar value.

Tested on: not given
Assay: not given
Details: not given

Row | Compound | melting point [°C]
1 | COc1cc2c(cc1OC)N(C(=O)c1ccc(-c3ccccc3C(F)(F)F)c(C)c1)Cc1ccc(C(=O)N(C)CC(O)CO)n1C2 (stereo not shown) [Example 18, N-(2,3-Dihydroxypropyl)-7,8-dimethoxy-N-methyl-10-{[2-methyl-2′-trifluoromethyl-[1,1′-biphenyl]-4-yl]carbonyl}-10,11-dihydro-5H-pyrrolo[2,1-c][1,4]benzodiazepine-3-carboxamide] | 184 to 186
2 | COCCN1CCN(C(=O)c2ccc3n2Cc2ccccc2N(C(=O)c2ccc(-c4ccccc4C(F)(F)F)c(C)c2)C3)CC1 [Example 7, Methyl 2-{4-[(10-{[2-methyl-2′-trifluoromethyl-[1,1′-biphenyl]-4-yl]carbonyl}-10,11-dihydro-5H-pyrrolo[2,1-c][1,4]benzodiazepin-3-yl)carbonyl]piperazin-1-yl}ethyl ether] | 140 to 144

Molecular target: T1, human vasopressin V2 receptor subtype (Homo sapiens, UniProt P30518)
T1 construct: host or cells: CHO cells, pZeoSV vector
Assay: Vasopressin binding in CHO cell membranes expressing human vasopressin V2 subtype receptors ([3H]arginine vasopressin radioligand binding)
Details: @ 100 nM
Text: Vasopressin Binding in Chinese Hamster Ovary Cell Membranes Expressing Human Vasopressin V2 Subtype Receptors
Chinese Hamster Ovary (CHO) cells stably transfected with the human V2 subtype receptors were obtained from M. Thibonnier, Case Western Reserve University School of Medicine, Cleveland, Ohio.
A. Passaging and Amplification of Cells
CHO cells transfected with the human vasopressin V2 subtype receptors obtained from M. Thibonnier (pZeoSV vector) are allowed to grow to confluency (approx. >90%) in T-150 flasks under sterile conditions, in a cell culture medium ofF-12 Nutrient Mixture (HAM) with L-glutamine (Gibco Cat. #11765-054) containing 15 mM HEPES (Gibco Cat. #15630-080), 1% antibiotic/antimycotic (add 5 mL 100×, Gibco Cat. #15240-062 per 500 mL F-12), 250 μg/mL Zeocin (add 1.25 mL of 100 mg/mL Invitrogen R-250-01 per 500 mL F-1 2) and 10% Fetal Bovine Serum (Qualified, heat inactivated, Gibco Cat. #16140-063). The medium is removed by aspiration and the cells washed with 10 mL of Hank's Balanced Salt solution (Gibco Cat. #14175-095). The salt solution is removed by aspiration and the cells trypsinized with 5 mL of trypsin-EDTA (0.05% trypsin, 0.53 mM EDTA-4Na, Gibco Cat. #25300-070) for 1 min. The trypsin is removed by aspiration and the cells dislodged by tapping. Cell Culture medium (e.g. 30 mL for 1:30 split) is immediately added and mixed well to inactivate trypsin. 1 mL of detached cells is added to new culture flasks containing fresh Cell Culture medium (e.g. into 25 mL per T-150 flask), and mixed gently. The cells are incubated at 37° C. in 5% CO2. The medium is changed at 3 to 4 day interval (or as appropriate). The cells grow to confluency (approx. >75%-95%) within 7-8 days. All steps are done under sterile conditions.
The cells are washed twice gently with Hank's Balanced Salt solution (e.g. use 10 mL per T-150 flask). The excess solution is removed and the cells bathed for 15-30 min. in an enzyme-free Cell Dissociation Buffer (e.g. use 8 mL Hank's Based, Gibco Cat. # 13150-016 per T-150 flask) until cells are loosened. The contents are transferred to centrifuge tubes (50 mL) kept in ice bath. All subsequent steps are done at 4° C. The tubes are centrifuged at 300×g for 15 min (1380 rpm on SORVAL, Model RT6000D, using the rotor for 50 mL tubes). The supernatant is discarded and the cells suspended in homogenizing buffer (10 mM Tris-HCl containing 0.25 M sucrose and 1 mM EDTA, pH 7.4) ensuring that the volume of the buffer is about ten times the volume of the cell pellet. The cells are pooled into a centrifuge tube (50 mL) and homogenized with Polytron at setting 6 for 10 sec. The homogenate is transferred into a Potter-Elvjehm homogenizer and homogenized with 3 strokes. The homogenate is centrifuged at 1500×g for 60 min at 4° C. (3100 rpm using SORVAL, model RT6000D, using the rotor for 50 mL tubes). The pellet is discarded. The supernatant is centrifuged at 100,000×g for 60 min. at 4° C. (Beckman L8-80M ultracentrifuge; spin at 37,500 rpm with rotor type 70 Ti for 50 mL tubes; 38,000 rpm with type 80Ti for 15 mL tubes; or 35,800 rpm with rotor type 45Ti). The supernantant is discarded and the pellet suspended in 3 to 4 mL of Tris buffer (50 mM TRIS—HCl, pH 7.4). The protein content is estimated by the Bradford or Lowry method. The volume of the membrane suspension is adjusted with the membrane buffer (50 mM Tris-HCl containing 0.1% BSA and 0.1 mM PMSF) to give 3.0 mg/mL (or as appropriate) of protein. The membranes are aliquoted and stored at −70. ° C.
C. Radioligand Binding Assay
In wells of a 96-well format microtiter plate, is added 90, 110 or 130 μL (to make up a final volume of 200 μL) of assay buffer containing 50 mM of Tris-HCl (pH 7.4), […], 1 mg % aprotinin, 1 mg % leupeptin, 2 mg % 1,10-phenanthroline, 10 mg % trypsin inhibitor, and 0.1 mM PMSF. The inhibitors are added on the day of the experiment. […]

Row | Compound | inhibition at 0.1 µM [%]
3 | COc1cc2c(cc1OC)N(C(=O)c1ccc(-c3ccccc3C(F)(F)F)c(C)c1)Cc1ccc(C(=O)N(C)CC(O)CO)n1C2 (stereo not shown) [Example 18, N-(2,3-Dihydroxypropyl)-7,8-dimethoxy-N-methyl-10-{[2-methyl-2′-trifluoromethyl-[1,1′-biphenyl]-4-yl]carbonyl}-10,11-dihydro-5H-pyrrolo[2,1-c][1,4]benzodiazepine-3-carboxamide] | -5
4 | COCCN1CCN(C(=O)c2ccc3n2Cc2ccccc2N(C(=O)c2ccc(-c4ccccc4C(F)(F)F)c(C)c2)C3)CC1 [Example 7, Methyl 2-{4-[(10-{[2-methyl-2′-trifluoromethyl-[1,1′-biphenyl]-4-yl]carbonyl}-10,11-dihydro-5H-pyrrolo[2,1-c][1,4]benzodiazepin-3-yl)carbonyl]piperazin-1-yl}ethyl ether] | 16
5 | COc1ccccc1-c1ccc(C(=O)N2Cc3ccc(C(=O)N(C)C[C@H](O)CO)n3Cc3ccccc32)cc1C (single isomer, unassigned) [Example 15] | 74
6 | COc1cc(C(=O)N2Cc3ccc(C(=O)N4CCN(CCO)CC4)n3Cc3ccccc32)ccc1-c1ccccc1C [Example 42, [4-(2-Hydroxyethyl)-1-piperazinyl]{10-[(2-methoxy-2′-methyl[1,1′-biphenyl]-4yl)carbonyl]-10,11-dihydro-5H-pyrrolo[2,1-c][1,4]benzodiazepin-3-yl}methanone] | 27
7 | COc1ccccc1-c1ccc(C(=O)N2Cc3ccc(C(=O)N4CCN(CCO)CC4)n3Cc3ccccc32)cc1 [Example 47, [4-(2-Hydroxyethyl)-1-piperazinyl]{10-[(2′-methoxy[1,1′-biphenyl]-4-yl)carbonyl]-10,11-dihydro-5H-pyrrolo[2,1-c][1,4]benzodiazepin-3-yl}methanone] | 16
8 | Cc1cc(C(=O)N2Cc3ccc(C(=O)N4CCN(CCO)CC4)n3Cc3ccccc32)ccc1-c1ccccc1C(F)(F)F [Example 48, [4-(2-Hydroxyethyl)-1-piperazinyl](10-{[2-methyl-2′-(trifluoromethyl)[1,1′-biphenyl]-4-yl)carbonyl}-10,11-dihydro-5H-pyrrolo[2,1-c][1,4]benzodiazepin-3-yl)methanone] | 11
9 | COc1ccccc1-c1ccc(C(=O)N2Cc3ccc(C(=O)N4CCN(CCO)CC4)n3Cc3ccccc32)cc1C [Example 40, [4-(2-Hydroxyethyl)-1-piperazinyl]{10-[(2′-methoxy-2-methyl[1,1′-biphenyl]-4yl)carbonyl]-10,11-dihydro-5H-pyrrolo[2,1-c][1,4]benzodiazepin-3-yl}methanone] | 25
10 | COc1cccc(-c2ccc(C(=O)N3Cc4ccc(C(=O)N5CCN(CCO)CC5)n4Cc4ccccc43)cc2C)c1 [Example 44, [4-(2-Hydroxyethyl)-1-piperazinyl]{10-[(3′-methoxy-2-methyl[1,1′-biphenyl]-4yl)carbonyl]-10,11-dihydro-5H-pyrrolo[2,1-c][1,4]benzodiazepin-3-yl}methanone] | 13
11 | COc1cc(C(=O)N2Cc3ccc(C(=O)N4CCN(CCO)CC4)n3Cc3ccccc32)ccc1-c1cccc2ccccc12 [Example 41, [4-(2-Hydroxyethyl)-1-piperazinyl]{10-[3-methoxy-4-(1-naphthyl)benzoyl]-10,11-dihydro-5H-pyrrolo[2,1-c][1,4]benzodiazepin-3-yl}methanone] | 35

Same assay, conditions: value printed in parentheses

Row | Compound | pIC50
12 | Cc1cc(C(=O)N2Cc3ccc(C(=O)N(C)C[C@H](O)[C@@H](O)[C@H](O)[C@H](O)CO)n3Cc3ccccc32)ccc1-c1ccccc1C(F)(F)F [Example 4, 10-[(2-Methyl-2′-trifluoromethyl-[1,1′-biphenyl]-4-yl)carbonyl]-10,11-dihydro-5H-pyrrolo[2,1-c][1,4]benzodiazepine-3-carboxylic acid methyl-((2S,3R,4R,5R)-2,3,4,5,6-pentahydroxy-hexyl)-amide] | 6.21
13 | CC(=O)OCC(CN(C)C(=O)c1ccc2n1Cc1ccccc1N(C(=O)c1ccc(-c3ccccc3C(F)(F)F)c(C)c1)C2)OC(C)=O (stereo not shown) [Example 13, 2-(Acetyloxy)-1-({methyl[(10-{[2-methyl-2′-trifluoromethyl-[1,1′-biphenyl]-4-yl]carbonyl}-10,11-dihydro-5H-pyrrolo[2,1-c][1,4]benzodiazepin-3-yl)carbonyl]amino}methyl)ethyl acetate] | 6.00
14 | Cc1cc(C(=O)N2Cc3ccc(C(=O)N(C)CC4COC(=O)O4)n3Cc3ccccc32)ccc1-c1ccccc1C(F)(F)F (stereo not shown) [Example 11, 10-[(2-Methyl-2′-trifluoromethyl-[1,1′-biphenyl]-4-yl)carbonyl]-10,11-dihydro-5H-pyrrolo[2,1-c][1,4]benzodiazepine-3-carboxylic acid methyl-[(2-oxo-[1,3]dioxolan-4-yl)methyl]-amide] | 6.45
15 | COc1ccccc1-c1ccc(C(=O)N2Cc3ccc(C(=O)N(C)CC(O)CO)n3Cc3ccccc32)cc1C (stereo not shown) [Example 14, 10-[(2′-Methoxy-2-methyl-[1,1′-biphenyl]-4-yl)carbonyl]-10,11-dihydro-5H-pyrrolo[2,1-c][1,4]benzodiazepine-3-carboxylic acid (2,3-dihydroxy-propyl)-methyl-amide] | 6.69
16 | COc1cc(C(=O)N2Cc3ccc(C(=O)N(C)C[C@@H](O)[C@H](O)[C@H](O)[C@@H](O)CO)n3Cc3ccccc32)ccc1-c1ccccc1C(F)(F)F (stereo in doubt) [Example 23, 10-{[2-Methoxy-2′-trifluoromethyl-[1,1′-biphenyl]-4-yl]carbonyl}-N-methyl-N-[(2R,3S,4R,5S)-2,3,4,5,6-pentahydroxyhexyl]-10,11-dihydro-5H-pyrrolo[2,1-c][1,4]benzodiazepine-3-carboxamide] | 6.35
17 | {(2S)-1-[(10-{[2-Methoxy-2(trifluoromethyl)[1,1′-biphenyl]-4-yl]carbonyl}-10,11-dihydro-5H-pyrrolo[2,1-c][1,4]benzodiazepin-3-yl)carbonyl]pyrrolidin-2-yl}-methanol [Example 36] | 5.68
18 | Cc1cc(C(=O)N2Cc3ccc(C(=O)N(C)C[C@@H]4OC(=O)O[C@H]4[C@H](O)[C@H]4COC(=O)O4)n3Cc3ccccc32)ccc1-c1ccccc1C(F)(F)F [Example 12, N-[((4S,5S)-5-{(R)-Hydroxy[(4R)-2-oxo-1,3-dioxolan-4-yl]methyl}-2-oxo-1,3-dioxolan-4-yl)methyl]-N-methyl-10-{[2-methyl-2′-(trifluoromethyl)[1,1′-biphenyl]-4-yl]carbonyl}-10,11-dihydro-5H-pyrrolo[2,1-c]benzodiazepine-3-carboxamide] | 6.12
19 | Cc1cc(C(=O)N2Cc3ccc(C(=O)N4CCN(C[C@@H](O)CO)CC4)n3Cc3ccccc32)ccc1-c1ccccc1C(F)(F)F [Example 6, (2R)-3-{4-[(10-{[2-Methyl-2′-trifluoromethyl-[1,1′-biphenyl]-4-yl]carbonyl}-10,11-dihydro-5H-pyrrolo[2,1-c][1,4]benzodiazepin-3-yl)carbonyl]piperazin-1-yl}propane-1,2-diol] | 5.86
